Assays:
[1] = molecular target: T1, Recombinant Human 5'-Nucleotidase/CD73 (Homo sapiens, UniProt P21589); assay: Enzyme activity of purified CD73 (AMP-Glo assay); type: biochemical
T1 construct: purchased R&D Systems
T1 sequence (P21589 27-574): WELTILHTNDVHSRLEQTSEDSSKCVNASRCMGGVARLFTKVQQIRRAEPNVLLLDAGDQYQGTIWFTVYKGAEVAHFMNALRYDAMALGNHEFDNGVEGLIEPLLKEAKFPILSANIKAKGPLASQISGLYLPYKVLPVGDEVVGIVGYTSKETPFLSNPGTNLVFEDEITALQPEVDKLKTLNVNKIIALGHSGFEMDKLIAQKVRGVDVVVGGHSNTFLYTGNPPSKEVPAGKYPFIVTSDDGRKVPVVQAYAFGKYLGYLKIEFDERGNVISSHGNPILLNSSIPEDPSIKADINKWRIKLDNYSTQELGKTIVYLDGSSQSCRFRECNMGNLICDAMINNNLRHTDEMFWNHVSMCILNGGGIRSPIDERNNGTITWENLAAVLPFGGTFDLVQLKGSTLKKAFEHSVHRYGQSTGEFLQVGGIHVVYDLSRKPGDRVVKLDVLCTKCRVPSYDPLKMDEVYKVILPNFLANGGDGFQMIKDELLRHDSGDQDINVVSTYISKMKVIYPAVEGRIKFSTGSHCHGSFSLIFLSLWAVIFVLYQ
Procedure: • Determination of enzyme activity of purified CD73. In a 25 μl reaction buffer (10mM HEPES, pH 7.4, 2mM MgCl2, 1mM CaCl2, and 0.1mg/ml BSA) containing enzyme and AMP substrate at 1μM to 10μM (96-well format), enzyme activity was performed at 23°C for specified time period and terminated by the addition of equal volume (25μl) of AMP-Glo™ Reagent I containing 50 μM (final concentration) of known CD73 inhibitor, such as AMPCP. Reactions were mixed well and incubated for additional 30 min at 23°C. This was followed by the addition of 50 μl of AMP Detection Solution (10μl of AMP-Glo™ Reagent II per ml of Kinase-Glo® One Solution) and incubated for additional 60 min at 23°C before reading luminescence.

[2] = molecular target: T2, CD39 (His-Tag Human) (Homo sapiens, UniProt P49961); assay: Enzyme activity of purified CD39 with ATP or ADP as substrate; type: biochemical; details: 0.1ng CD39, 10 μM ATP or 10 μM ADP, 30min at 37°C
T2 construct: His; purchased R&D Systems
T2 sequence (P49961 1-510): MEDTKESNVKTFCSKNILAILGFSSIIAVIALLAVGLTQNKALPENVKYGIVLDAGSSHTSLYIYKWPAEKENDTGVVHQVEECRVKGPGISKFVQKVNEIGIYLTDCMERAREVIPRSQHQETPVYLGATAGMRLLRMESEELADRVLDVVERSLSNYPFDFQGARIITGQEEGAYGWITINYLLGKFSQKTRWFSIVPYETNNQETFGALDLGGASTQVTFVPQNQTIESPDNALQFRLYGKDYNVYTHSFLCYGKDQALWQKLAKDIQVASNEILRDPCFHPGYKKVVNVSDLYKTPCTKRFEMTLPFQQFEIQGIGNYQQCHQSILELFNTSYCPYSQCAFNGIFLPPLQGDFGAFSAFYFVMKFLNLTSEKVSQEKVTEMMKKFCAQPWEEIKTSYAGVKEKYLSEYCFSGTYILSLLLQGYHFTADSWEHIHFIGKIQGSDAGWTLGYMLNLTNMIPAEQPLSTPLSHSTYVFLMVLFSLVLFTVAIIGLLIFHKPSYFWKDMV
Procedure: • 2 Determination of enzyme activity of purified cytosolic cN-II. Activity of purified cN-II (Human cytosolic 5'-Nucleotidase) was determined using 25μl reaction buffer (50mM HEPES, pH 7.0, 100mM KCl, 20mM MgCl2, 5mM DTT, 2.5mM dATP, and 0.1mg/ml BSA) containing enzyme and AMP substrate at 10μM (96-well format). Reaction continued at 37°C for 60 minutes or for a certain time period and terminated by the addition of equal volume (25μl) of AMP-Glo™ Reagent I. Reactions were mixed well and incubated for additional 30 min at 23°C. This was followed by the addition of 50 μl of AMP Detection Solution (10μl of AMP-Glo™ Reagent II per ml of Kinase-Glo® One Solution) and incubated for additional 60 min at 23°C before reading luminescence. • 3 Determination of enzyme activity of purified CD39. […] When ATP is used as a substrate, an equal volume of Kinase-Glo® One Solution was added to CD39 reactions and incubated for 15 min before reading luminescence using a luminometer. When ADP is used as a substrate for CD39, after enzyme reaction completion, an equal volume of AMP Detection Solution with a known CD39 known inhibitor, such as POM 1 at 50μM final concentration was added. Reactions were mixed well and incubated for 60min before reading luminescence using luminometer. For enzyme dilution, reaction buffer can be used for dilution of enzymes.

SMILES | effect on CD73 enzyme activity ([1]; purified CD73, 0.1ng, 1μM AMP, 5 min at 23°C (Fig 6)) | inhibitory effect on purified CD39 [2] | Km ([1]; 0.01ng CD73 per reaction, varying AMP, 5min at 23°C) [µM]
CCN(CC)c1ncnc2c1ncn2[C@@H]1O[C@H](COP(=O)(O)OP(=O)(O)C(Br)(Br)P(=O)(O)O)[C@@H](O)[C@H]1O.[Na+].[Na+].[Na+] [ARL 67156, 6-N,N-Diethyl-D-β,γ-dibromomethyleneATP trisodium salt] | no effect | inhibited | –
Nc1ncnc2c1ncn2[C@@H]1O[C@H](COP(=O)(O)O)[C@@H](O)[C@H]1O [AMP, adenosine monophosphate] | – | – | 2.53

Reference: publication PMC6814236, “Monitoring and characterizing soluble and membrane-bound ectonucleotidases CD73 and CD39” (PLoS ONE, 2019)
